Test results from PMC9573294, “AVA-NP-695 Selectively Inhibits ENPP1 to Activate STING Pathway and Abrogate Tumor Metastasis in 4T1 Breast Cancer Syngeneic Mouse Model” (Molecules, 2022).

Molecular target: T1, Ectonucleotide pyrophosphatase/phosphodiesterase 1 (ENPP1) (Homo sapiens, UniProt P22413)
T1 construct: Human recombinant ENPP1 (rENPP1)
T1 sequence (P22413 98-925 limits assumed): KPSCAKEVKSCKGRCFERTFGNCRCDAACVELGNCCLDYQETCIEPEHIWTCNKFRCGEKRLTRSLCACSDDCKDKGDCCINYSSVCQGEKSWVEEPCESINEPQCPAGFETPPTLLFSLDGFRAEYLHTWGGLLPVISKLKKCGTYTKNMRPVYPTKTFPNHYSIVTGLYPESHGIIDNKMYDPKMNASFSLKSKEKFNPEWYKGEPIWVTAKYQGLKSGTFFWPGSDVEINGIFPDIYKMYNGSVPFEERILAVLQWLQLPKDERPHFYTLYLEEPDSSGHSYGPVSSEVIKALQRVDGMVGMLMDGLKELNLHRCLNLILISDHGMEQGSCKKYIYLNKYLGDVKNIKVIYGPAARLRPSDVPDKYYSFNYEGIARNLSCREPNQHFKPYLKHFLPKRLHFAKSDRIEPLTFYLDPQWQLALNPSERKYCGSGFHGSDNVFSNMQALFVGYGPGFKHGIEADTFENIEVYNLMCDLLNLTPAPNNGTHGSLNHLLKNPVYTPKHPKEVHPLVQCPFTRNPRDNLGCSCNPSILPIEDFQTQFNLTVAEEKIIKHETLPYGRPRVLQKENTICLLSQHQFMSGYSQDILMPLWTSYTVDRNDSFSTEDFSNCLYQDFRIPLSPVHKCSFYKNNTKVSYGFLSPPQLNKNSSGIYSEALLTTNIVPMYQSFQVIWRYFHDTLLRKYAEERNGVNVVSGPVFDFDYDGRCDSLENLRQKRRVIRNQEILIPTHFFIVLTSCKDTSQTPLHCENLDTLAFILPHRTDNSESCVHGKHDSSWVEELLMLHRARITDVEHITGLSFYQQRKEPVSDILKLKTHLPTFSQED
Experiment: enzymatic assay with p-Nph-5'-TMP substrate (Ki […] with […]'[…]'-cGAMP and […] with p-NPh-5'-TMP also printed)
Assay type: biochemical

AVA-NP-695 was tested. Which IC50 did it give?
Its IC50 is 14 ± 2 nM.
